Source: patent US20080255121A1, “Combination Drug for Treating Autoimmune Disease” (DAINIPPON SUMITOMO PHARMA CO., LTD., priority 2004, published 2008)

Tests used:
[1] = tested on: adjuvant-induced arthritis rats; assay: Adjuvant-induced arthritis, therapeutic and prophylactic model; type: in vivo, rat
Protocol: The adjuvant-induced arthritis model is a representative chronic inflammation model caused in rats, and it is widely used for pharmacological evaluation of antiinflammatory drugs and antirheumatic drugs. Accordingly, effects of Compound (I) and Compound (II) were examined in both therapeutic and prophylactic model. In the therapeutic model, the difference of the volume of a hind leg before and after the dosed period was calculated to examine edema suppression effect by the drug administration and the change of edema volume was examined. In the prophylactic model, the volume of a hind paw was measured over time during the dosed period and the effect of the drug for a long term period was examined. Although the hind paw volume or the edema volume was used as the index of efficacy evaluation, the edema volume means the increment from the normal volume of the hind paw which was not sensitized with the adjuvant, and therefore, the both indices can be used as approximately the same meaning.
A liquid paraffin suspension (1 mg/200 μl) of Mycobacterium butyricum (adjuvant) was subcutaneously injected at the tarsal part of the right hind paw of SD or Lewis rats (both male, six-week old) to cause arthritis. In the therapeutic model, 0.5% methylcellulose suspension of Compound (I) or Compound (II) which was prepared so that the dose was 1 ml per 100 g body weight was orally administered once a day for consecutive five days from the 17th day after the injection of the adjuvant. An indomethacin suspension prepared in the similar way was administered as the positive control. The volume of the hind paws was measured respectively for the right and the left by water replacement method just before the administration and in five hours after the last administration and the difference in the values just before the administration and in five hours after the last administration was calculated and assumed as the change in the edema volume. In the prophylatic model, the compounds were administered once a day for consecutive 21 days after the day when the adjuvant was injected. The volume of the right and left hind paws was measured by water replacement method every other day. In the prophylactic model of Compound (II), a suspension of D-penicillamine, an antirheumatic drug, was administered in the same way as a control.

[2] = tested on: collagen-induced arthritis mouse; assay: Collagen-induced arthritis in mice; type: in vivo
Protocol: Efficacy evaluation of Compound (I) was performed using a collagen-induced arthritis in mice as an animal model of rheumatoid arthritis. The collagen-induced arthritis was caused following an ordinary method. That is, 0.1 ml of emulsion was injected to a mouse (DBA/1J, male, Charles River Laboratories Japan) at the base of the tail under etherization as primary immunization. The emulsion was prepared by mixing the same volume of a bovine type II collagen solution (2 mg/ml, Collagen Kenshukai) and Freund Complete Adjuvant (Difco). 0.1 ml of emulsion of the same composition was injected at the base of the tail as booster immunization after three weeks and arthritis was caused. The severity of arthritis was indicated as a score according to the following criteria.
1: Swelling at two or less joints
2: Swelling at three or more joints/Slight redding and edema at limbs
3: Swelling at three or more joints/Moderate redding and edema at limbs
4: Severe redding and edema at limbs/Ankylosis
Evaluation is performed for each limb with 0 to 4 points and therefore the possible maximum score in one individual is 16.
Compound (I) and prednisolone (positive control) were suspended in 0.5% methylcellulose solution and 0.1 ml per 10 g mouse weight was orally administered. In a control group, only 0.5% methylcellulose solution was orally administered. The administration was started with the primary immunization and carried out once a day for consecutive 35 days.

[3] = tested on: adjuvant-induced arthritis rats; assay: Combination effect on adjuvant-induced arthritis (Example 18); type: in vivo, rat; conditions: only Compound (I) 10 mg/kg oral 12 days from day 10
Protocol: Combination effect with Compound (I) and DMARDs (methotrexate) was examined in the same way as in Example 17.
Administration of a DMARD (methotrexate (0.060 mg/kg or 0.045 mg/kg; 0.5% methylcellulose suspension)) to the rat in which adjuvant-induced arthritis was caused in the same way as in Example 17 was started on the day when the adjuvant was injected and continued once a day for consecutive 21 days. Compound (I) (10 mg/kg) was orally administered singly or in combination once a day for consecutive 12 days from the 10 days after the sensitization. The volume of the left hind paw was measured by water replacement method every other day.

[4] = tested on: adjuvant-induced arthritis rats; assay: Combination effect on adjuvant-induced arthritis (Example 19); type: in vivo, rat
Protocol: Combination effect for rat adjuvant-induced arthritis was examined in the same manner as in Example 17.
The volume of the left hind paw was measured by water replacement method just before the administration and after the last administration, and AUC (the area under the curve formed by plotting the difference of the value at the time of grouping from the value of each time point during the administration period against the time) of the increased volume of the left hind paw was determined. Joint destruction of the right hind paw (injected paw) and the left hind paw (non-injection paw) can be measured by X-ray and this can be also used as the index to evaluate the combination effect.

adjuvant arthritis rats = conditions: reported in Patent Documents 3, 4 and Non-Patent Documents 3 to 5; cited from earlier work
[5] = tested on: collagen-induced arthritis rats; conditions: reported in Patent Document 3 and Non-Patent Documents 3 to 5; cited from earlier work
[6] = tested on: experimental allergic encephalomyelitis mice; assay: Experimental allergic encephalomyelitis, KN-93; type: in vivo, mouse
Protocol: The efficacy evaluation of KN-93 was performed with the experimental allergic encephalomyelitis mice as an animal model of multiple sclerosis. The experimental allergic encephalomyelitis was caused following the method of Bradley et al. (J. Clinical Investigation, 107: 995-1006, 2001). That is, 150 μg of PLP partial peptide (PLP139-151: NH2—[…]—COOH, SEQ ID NO 12) mixed in a Freund complete adjuvant was injected subcutaneously to a seven-week old female SJL/J mouse (purchased from Charles River Laboratories Japan) at the rear back. The severity of the condition was indicated as a score (disease score) according to the following criteria.
0.5: Slight paralysis of tail
2: Light paralysis of hind leg
3: Medium to intense paralysis of hind leg or light forelimb paralysis
4: Complete paralysis of hind paw or medium to intense paralysis of forelimb
5: Paralysis of four limbs or toward death period
KN-93 was suspended in 0.5% methylcellulose solution (0.1 mg/ml) and 0.1 ml per 10 g mouse weight was subcutaneously administered. In a control group, only 0.5% methylcellulose solution was subcutaneously administered. The administration was started on the 7 days after sensitization and carried out once a day for consecutive 24 days.

[7] = 5 mg/kg oral once a day 35 days

C[C@@H](c1ccc(-c2ccccc2)c(F)c1)c1cc(/N=C(/N)N2CCOCC2)on1 [Compound (I), 3-[(1S)-1-(2-fluorobiphenyl-4-yl)ethyl]-5-{[amino(morpholin-4-yl)methylene]amino}isoxazole]
p, left hind paw volume (AUC value), Williams's multiple comparison ([1]; prophylactic model, 20 mg/kg): < 0.05
hind paw volume / edema volume ([1]; prophylactic model, oral once a day for 21 days, Compound (I) 2.5 to 80 mg/kg, Compound (II) 50 mg/kg, FIGS. 8 and 9): remarkable edema suppressing effect
change of edema volume of hind paw ([1]; therapeutic model, oral once a day for five days from 17th day, Compound (I) 2.5 to 80 mg/kg, Compound (II) 10 to 50 mg/kg, FIGS. 6 and 7): remarkable edema suppressing effect
p, arthritis onset ratio, Fischer's direct probability method with Bonferroni's correction [2, 7]: < 0.05
p, arthritis score, Shirley-Williams multiple comparison test [2, 7]: < 0.05
onset of arthritis ([2]; 5 to 80 mg/kg oral once a day 35 days, FIG. 10): dose-dependently suppressed
degree of arthritis ([2]; 5 to 80 mg/kg oral once a day 35 days, FIG. 11): slight
onset ratio and volume of left hind paw [3]: very little effect
increased volume and onset ratio of left hind paw ([4]; only Compound (I) 20 mg/kg oral once a day 17 days): edema suppressing effect
increased volume and onset ratio of left hind paw ([4]; only Compound (I) 40 mg/kg and 80 mg/kg oral once a day 17 days): onset suppressing effect and edema suppressing effect
effects on adjuvant arthritis rats (adjuvant arthritis rats): anti-arthritis effects
effects on collagen-induced arthritis rats [5]: anti-arthritis effects

COc1ccc(S(=O)(=O)N(CCO)c2ccccc2CN(C)C/C=C/c2ccc(Cl)cc2)cc1 [KN-93, N-(2-[N-[4-chlorocinnamyl]-N-methylaminomethyl]phenyl)-N-(2-hydroxyethyl)-4-methoxybenzenesulfonamide, reference compound]
condition (disease score) ([6]; 1 mg/kg subcutaneous once a day 24 days from 7 days after sensitization, FIG. 12): much lighter as compared with the control group
death ([6]; 1 mg/kg subcutaneous once a day 24 days, control 7 of 10): 2 of 10
